According to patent publication US9102678B2, “Compounds and methods for inhibiting mitotic progression” (Millennium Pharmaceuticals, Inc., priority 2004, dated 2015):

Target: T1, recombinant murine Aurora A enzyme (Mus musculus, UniProt P97477)
T1 construct: hexahistidine (His6) (N); made in house; host or cells: insect cells, baculovirus (Bac-to-Bac, Invitrogen)
Assay: Aurora A DELFIA Kinase Assay
Assay type: biochemical
Conditions: mouse Aurora A, 250 μM ATP; threshold less than or equal to 100 nM; read-out: IC50
Excerpt: Recombinant mouse Aurora A with an amino-terminus hexahistidine tag (His-Aurora A) was expressed using a standard baculovirus vector and insect cell expression system (Bac-to-Bac®, Invitrogen).
Soluble, recombinant mouse Aurora A was purified from insect cells using Ni-NTA agarose (Qiagen) as described by the manufacturer and further purified over an S75 size exclusion column (Amersham Pharmacia Biotech).
Aurora A DELFIA® Kinase Assay
The enzymatic reaction mixture, with and without Aurora inhibitors, was incubated for 15 minutes at room temperature before termination with 100 μL of stop buffer (1% BSA, 0.05% Surfact-AMPS-20, and 100 mM EDTA). A total of 100 μL of the enzyme reaction mixture was transferred to wells of a Neutravidin-coated 96-well plate (Pierce) and incubated at room temperature for 30 minutes. The wells were washed with wash buffer (25 mM Tris, 150 mM sodium chloride, and 0.1% Tween 20) and incubated for 1 hour with 100 μL of antibody reaction mixture containing 1% BSA, 0.05% Surfact-AMPS-20, anti-phospho-PKA rabbit polyclonal antibody (1:2000, New England Biolabs), and europium labeled anti-rabbit IgG (1:2000, Perkin Elmer). The wells were washed and then the bound europium was liberated using 100 μL of Enhancement Solution (Perkin Elmer). Quantification of europium was done using a Wallac™ EnVision (Perkin Elmer).

T1 sequence (P97477 whole entry): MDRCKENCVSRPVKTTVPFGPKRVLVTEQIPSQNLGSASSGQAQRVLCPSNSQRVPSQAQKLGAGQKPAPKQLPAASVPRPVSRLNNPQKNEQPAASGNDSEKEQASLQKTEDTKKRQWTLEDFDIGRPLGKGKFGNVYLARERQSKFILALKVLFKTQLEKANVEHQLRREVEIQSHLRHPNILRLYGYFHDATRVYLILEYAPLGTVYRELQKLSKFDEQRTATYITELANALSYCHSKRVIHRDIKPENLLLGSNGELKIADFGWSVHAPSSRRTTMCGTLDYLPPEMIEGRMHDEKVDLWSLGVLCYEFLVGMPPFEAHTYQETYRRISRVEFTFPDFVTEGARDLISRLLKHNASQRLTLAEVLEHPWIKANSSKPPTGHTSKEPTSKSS

Structure (SMILES)	IC50 [nM]
O=C(O)C1CN(C(=O)c2ccc(Nc3ncc4c(n3)-c3ccc(Cl)cc3C(c3c(F)cccc3F)=NC4)cc2)CCN1 (stereo not shown) [Compound I-266, 4-(4-{[9-chloro-7-(2,6-difluorophenyl)-5H-pyrimido[5,4-d][2]benzazepin-2-yl]amino}benzoyl)piperazine-2-carboxylic acid]	≤ 100
NCCCc1cccc(Nc2ncc3c(n2)-c2ccc(Cl)cc2C(c2c(F)cccc2F)=NC3)c1 [Compound I-373, N-[3-(3-aminopropyl)phenyl]-9-chloro-7-(2,6-difluorophenyl)-5H-pyrimido[5,4-d][2]benzazepin-2-amine]	≤ 100
COc1ccccc1C1=NCc2cnc(Nc3ccc(C(=O)N4CC(C)NC(C)C4)cc3)nc2-c2ccc(Cl)cc21 (stereo not shown) [Compound I-330]	≤ 100
O=C(O)c1ccc(Nc2ncc3c(n2)-c2ccc(Cl)cc2C(c2c(F)cccc2F)=NC3)cc1 [Compound I-135, 4-[9-Chloro-7-(2,6-difluoro-phenyl)-5H-benzo[c]pyrimido[4,5-e]azepin-2-ylamino]-benzoic acid]	≤ 100
O=C(c1ccc(Nc2ncc3c(n2)-c2ccc(Cl)cc2C(c2c(F)cccc2F)=NC3)cc1)N1CCNCC1 [Compound I-195, {4-[9-Chloro-7-(2,6-difluoro-phenyl)-5H-benzo[c]pyrimido[4,5-e]azepin-2-ylamino]-phenyl}-piperazin-1-yl-methanone]	≤ 100
CCOC(=O)C(N)CCNC(=O)c1ccc(Nc2ncc3c(n2)-c2ccc(Cl)cc2C(c2c(F)cccc2F)=NC3)cc1 (stereo not shown) [Compound I-300, ethyl 2-amino-4-[(4-{[9-chloro-7-(2,6-difluorophenyl)-5H-pyrimido[5,4-d][2]benzazepin-2-yl]amino}benzoyl)amino]butanoate]	≤ 100
Cc1ccc2c(c1)C(c1ccccc1F)=NCc1cnc(Nc3ccc(C(=O)NCCN4CCOCC4)cc3)nc1-2 [Compound I-148, 4-[7-(2-Fluoro-phenyl)-9-methyl-5H-benzo[c]pyrimido[4,5-e]azepin-2-ylamino]-N-(2-morpholin-4-yl-ethyl)-benzamide]	≤ 100
Cc1ccccc1C1=NCc2cnc(Nc3ccc(C(=O)N4CCN(C)CC4)cc3)nc2-c2ccc(Cl)cc21 [Compound I-11, [4-(9-Chloro-7-o-tolyl-5H-benzo[c]pyrimido[4,5-e]azepin-2-ylamino)-phenyl]-(4-methyl-piperazin-1-yl)-methanone]	≤ 100
COc1ccccc1C1=NCc2cnc(Nc3ccc(C(=O)O)cc3)nc2-c2ccc(Cl)cc21 [Compound I-55, 4-[9-Chloro-7-(2-methoxy-phenyl)-5H-benzo[c]pyrimido[4,5-e]azepin-2-ylamino]-benzoic acid]	≤ 100
CN1CCN(C(=O)Cc2cccc(Nc3ncc4c(n3)-c3ccc(Cl)cc3C(c3ccccc3F)=NC4)c2)CC1 [Compound I-15, 2-{3-[9-Chloro-7-(2-fluoro-phenyl)-5H-benzo[c]pyrimido[4,5-e]azepin-2-ylamino]-phenyl}-1-(4-methyl-piperazin-1-yl)-ethanone]	≤ 100
COc1cccc(F)c1C1=NCc2cnc(Nc3cccc(C(=O)N4CCC(N(C)C)CC4)c3)nc2-c2ccc(Cl)cc21 [Compound I-229, 9-chloro-N-(3-{[4-(dimethylamino)piperidin-1-yl]carbonyl}phenyl)-7-(2-fluoro-6-methoxyphenyl)-5H-pyrimido[5,4-d][2]benzazepin-2-amine]	≤ 100
O=C(O)Cc1cccc(Nc2ncc3c(n2)-c2ccc(Cl)cc2C(c2ccccc2Cl)=NC3)c1 [Compound I-65, {3-[9-Chloro-7-(2-chloro-phenyl)-5H-benzo[c]pyrimido[4,5-e]azepin-2-ylamino]-phenyl}-acetic acid]	≤ 100
CCN(CC)CCCN1CCN(C(=O)c2ccc(Nc3ncc4c(n3)-c3ccc(Cl)cc3C(c3ccccc3F)=NC4)cc2)CC1 [Compound I-208, 9-chloro-N-[4-({4-[3-(diethylamino)propyl]piperazin-1-yl}carbonyl)phenyl]-7-(2-fluorophenyl)-5H-pyrimido[5,4-d][2]benzazepin-2-amine]	≤ 100
CC1(C)CN=C(c2ccc(Nc3ncc4c(n3)-c3ccc(Cl)cc3C(c3c(F)cccc3F)=NC4)cc2)N1 [Compound I-270, 9-chloro-7-(2,6-difluorophenyl)-N-[4-(5,5-dimethyl-4,5-dihydro-1H-imidazol-2-yl)phenyl]-5H-pyrimido[5,4-d][2]benzazepin-2-amine]	≤ 100
CN1CCN(CCCNC(=O)c2ccc(Nc3ncc4c(n3)-c3ccc(Cl)cc3C(c3ccccc3Cl)=NC4)cc2)CC1 [Compound I-20, 4-[9-Chloro-7-(2-chloro-phenyl)-5H-benzo[c]pyrimido[4,5-e]azepin-2-ylamino]-N-[3-(4-methyl-piperazin-1-yl)-propyl]-benzamide]	≤ 100
CNCCCNC(=O)c1ccc(Nc2ncc3c(n2)-c2ccc(Cl)cc2C(c2ccccc2F)=NC3)cc1 [Compound I-130, 4-[9-Chloro-7-(2-fluoro-phenyl)-5H-benzo[c]pyrimido[4,5-e]azepin-2-ylamino]-N-(3-methylamino-propyl)-benzamide]	≤ 100
NC1CCN(C(=O)c2ccc(Nc3ncc4c(n3)-c3ccc(Cl)cc3C(c3ncccc3F)=NC4)cc2)CC1 [Compound I-304, N-{4[(4-aminopiperidin-1-yl)carbonyl]phenyl}-9-chloro-7-(3-fluoropyridin-2-yl)-5H-pyrimido[5,4-d][2]benzazepin-2-amine]	≤ 100
CN(C)C1CCN(C(=O)c2ccc(Nc3ncc4c(n3)-c3ccc(Cl)cc3C(c3c(F)cccc3F)=NC4)cc2Cl)C1 (stereo not shown) [Compound I-215, 9-chloro-N-(3-chloro-4-{[3-(dimethylamino)pyrrolidin-1-yl]carbonyl}phenyl)-7-(2,6-difluorophenyl)-5H-pyrimido[5,4-d][2]benzazepin-2-amine]	≤ 100
CNC1CCN(C(=O)c2ccc(Nc3ncc4c(n3)-c3ccc(Cl)cc3C(c3c(F)cccc3Cl)=NC4)cc2)CC1 [Compound I-325, 9-chloro-7-(2-chloro-6-fluorophenyl)-N-(4-{[4-(methylamino)piperidin-1-yl]carbonyl}phenyl)-5H-pyrimido[5,4-d][2]benzazepin-2-amine]	≤ 100
O=C(c1ccc(Nc2ncc3c(n2)-c2ccc(Cl)cc2C(c2ccccc2F)=NC3)cc1)N1CCN(CCCN2CCCCC2)CC1 [Compound I-181, {4-[9-Chloro-7-(2-fluoro-phenyl)-5H-benzo[c]pyrimido[4,5-e]azepin-2-ylamino]-phenyl}-[4-(3-piperidin-1-yl-propyl)-piperazin-1-yl]-methanone]	≤ 100
N=C(NC(=O)c1ccc(Nc2ncc3c(n2)-c2ccc(Cl)cc2C(c2c(F)cccc2F)=NC3)cc1)N1CCNCC1 [Compound I-224, 4-{[9-chloro-7-(2,6-difluorophenyl)-5H-pyrimido[5,4-d][2]benzazepin-2-yl]amino}-N-[imino(piperazin-1-yl)methyl]benzamide]	≤ 100
Cc1ccccc1C1=NCc2cnc(Nc3ccc(C(=O)O)cc3)nc2-c2ccc(Cl)cc21 [Compound I-54, 4-(9-Chloro-7-o-tolyl-5H-benzo[c]pyrimido[4,5-e]azepin-2-ylamino) -benzoic acid]	≤ 100
CN(C)C1CN(C(=N)c2ccc(Nc3ncc4c(n3)-c3ccc(Cl)cc3C(c3c(F)cccc3F)=NC4)cc2)C1 [Compound I-267, 9-chloro-7-(2,6-difluorophenyl)-N-{4-[[3-(dimethylamino)azetidin-1-yl](imino)methyl]phenyl}-5H-pyrimido[5,4-d][2]benzazepin-2-amine]	≤ 100
COC(=O)C1CN(C(=O)c2ccc(Nc3ncc4c(n3)-c3ccc(Cl)cc3C(c3c(F)cccc3F)=NC4)cc2)CCN1 (stereo not shown) [Compound I-248, methyl 4-(4-{[9-chloro-7-(2,6-difluorophenyl)-5H-pyrimido[5,4-d][2]benzazepin-2-yl]amino}benzoyl)piperazine-2-carboxylate]	≤ 100
O=C(O)C1CN=C(c2ccc(Nc3ncc4c(n3)-c3ccc(Cl)cc3C(c3c(F)cccc3F)=NC4)cc2)N1 (stereo not shown) [Compound I-306, 2-(4-{[9-chloro-7-(2,6-difluorophenyl)-5H-pyrimido[5,4-d][2]benzazepin-2-yl]amino}phenyl)-4,5-dihydro-1H-imidazole-5-carboxylic acid]	≤ 100
CC1CN(C(=O)c2coc(Nc3ncc4c(n3)-c3ccc(Cl)cc3C(c3c(F)cccc3F)=NC4)n2)CC(C)N1 (stereo not shown) [Compound I-374, 9-chloro-7-(2,6-difluorophenyl)-N-[4-[(3,5-dimethylpiperazin-1-yl)carbonyl]-1,3-oxazol-2-yl]-5H-pyrimido[5,4-d][2]benzazepin-2-amine]	≤ 100
O=C(O)c1ccc(Nc2ncc3c(n2)-c2ccc(Cl)cc2C(c2ccccc2C(F)(F)F)=NC3)cc1 [Compound I-277, 4-({9-chloro-7-[2-(trifluoromethyl)phenyl]-5H-pyrimido[5,4-d][2]benzazepin-2-yl}amino)benzoic acid]	≤ 100
CN(C)CCN(C)C(=O)c1ccc(Nc2ncc3c(n2)-c2ccc(Cl)cc2C(c2ccccc2F)=NC3)cc1 [Compound I-5, 4-[9-Chloro-7-(2-fluoro-phenyl)-5H-benzo[c]pyrimido[4,5-e]azepin-2-ylamino]-N-(2-dimethylamino-ethyl)-N-methyl-benzamide]	≤ 100
